The text below walks through data of PMC8585718 (European journal of medicinal chemistry, 2021).

In assay [1] the target is ZVpro (Zika virus NS2B-NS3 protease) (Zika virus, UniProt A0A024B7W1). In words: Fluorescence-based biochemical assay of ZVpro inhibition. The following applies: for ZVpro IC50: enzyme 1 nM, substrate 10 μM, HEPES pH 7.3.
The next assay has as its system ZIKV-FLR in U87 cells. The experiment in a line: Anti-ZIKV activity in U87 cells. It is filed as cell-based, Zika virus.
For assay [2], the target named is DV2pro (NS2B-NS3 protease from DENV serotype-2) (Dengue virus type 2, UniProt P29990). The experiment in a line: Fluorescence-based biochemical assay of DV2pro inhibition. The following applies: IC50 vs substrate concentration 0.5 to 50 μM.

Where a name gives a salt, the structure may show the parent alone.

Regarding `CC(C)(C)c1ccc(-c2ccc3c(ccn3Cc3ccc(-c4ccoc4)cc3)c2)cc1` [Compound 4, 5-(4-(Tert-butyl)phenyl)-1-(4-(furan-3-yl)benzyl)-1H-indole Hydrochloride], in assay [1], the half-maximal inhibitory concentration (IC50) is greater than 50 µM and the “ZVpro IC50” value was “inactive”.

With `CC(C)(C)c1ccc(-c2ccc3c(ccn3Cc3ccc(-c4ccncc4)cc3)c2)cc1` [Compound 5, 5-(4-(Tert-butyl)phenyl)-1-(4-(pyridin-4-yl)benzyl)-1H-indole Hydrochloride], in assay [1], the half-maximal inhibitory concentration (IC50) is greater than 50 µM and the “ZVpro IC50” value was “inactive”.

In assay [1], `CC(C)(C)c1ccc(-c2ccc3cc(C(=O)NCC4CCNCC4)[nH]c3c2)cc1` [Compound 8, 6-(4-(Tert-butyl)phenyl)-N-(piperidin-4-ylmethyl)-1H-indole-2-carboxamide Hydrochloride] registered a half-maximal inhibitory concentration (IC50) of 1.3 µM.

Compound `CC(C)(C)c1ccc(-c2ccc3c(C(=O)NCC4CCNCC4)c[nH]c3n2)cc1` [Compound 9, 6-(4-(tert-butyl)phenyl)-N-(piperidin-4-ylmethyl)-1H-pyrrolo[2,3-b]pyridine-3-carboxamide Hydrochloride] showed an IC50 in assay [1] of 9.1 µM.

Compound `CC(C)(C)c1ccc(-c2ccc3[nH]c(C(=O)NCC4CCNCC4)nc3c2)cc1` [Compound 10, 5-(4-(tert-butyl)phenyl)-N-(piperidin-4-ylmethyl)-1H-benzo[d]imidazole-2 carboxamide Hydrochloride] showed an IC50 in assay [1] of 3.1 µM.

For `CC(C)(C)c1ccc(-c2ccc3sc(C(=O)NC4CCNCC4)cc3c2)cc1` [Compound 11, 5-(4-(Tert-butyl)phenyl)-N-(piperidin-4-yl)benzo[b]thiophene-2-carboxamide Hydrochloride], the IC50 in assay [1] is 3.2 µM.

Compound `CC(C)(C)c1ccc(-c2ccc3cc(C(=O)NC4CCNCC4)sc3c2)cc1` [Compound 12, 6-(4-(Tert-butyl)phenyl)-N-(piperidin-4-yl)benzo[b]thiophene-2-carboxamide Hydrochloride] came in with an IC50 in assay [1] of 2.1 µM.

In assay [1], `CC(C)(C)c1ccc(-c2ccc3c(C(=O)NC4CCNCC4)coc3c2)cc1` [Compound 13, 6-(4-(Tert-butyl)phenyl)-N-(piperidin-4-yl)benzofuran-3-carboxamide Hydrochloride] had a half-maximal inhibitory concentration (IC50) of 5.1 µM.

As for `N#Cc1ccc(-c2ccc3[nH]cc(C(=O)NC4CCNCC4)c3c2)cc1` [Compound 14, 5-(4-cyanophenyl)-N-(piperidin-4-yl)-1H-indole-3-carboxamide Hydrochloride], in assay [1], the IC50 is greater than 50 µM.

In turn, `COc1cc(-c2ccc3[nH]cc(C(=O)NC4CCNCC4)c3c2)cc(OC)c1OC` [Compound 15, N-(piperidin-4-yl)-5-(3,4,5-trimethoxyphenyl)-1H-indole-3-carboxamide Hydrochloride] had a concentration for half-maximal inhibition (IC50) in assay [1] greater than 50 µM.

In assay [1], `O=C(NCC1CCNCC1)c1c[nH]c2ccc(-c3ccc(F)cc3)cc12` [Compound 16, 5-(4-fluorophenyl)-N-(piperidin-4-ylmethyl)-1H-indole-3-carboxamide Hydrochloride] returned an IC50 greater than 50 µM.

For the compound `O=C(NCC1CCNCC1)c1c[nH]c2ccc(-c3ccc(F)cc3F)cc12` [Compound 17, 5-(2,4-difluorophenyl)-N-(piperidin-4-ylmethyl)-1H-indole-3-carboxamide Hydrochloride], in assay [1], the IC50 is greater than 50 µM.

Regarding `O=Cc1cccc(-c2ccc3[nH]cc(C(=O)NCC4CCNCC4)c3c2)c1` [Compound 18, 5-(3-formylphenyl)-N-(piperidin-4-ylmethyl)-1H-indole-3-carboxamide Hydrochloride], the IC50 in assay [1] is greater than 50 µM.

Take `COc1cc(-c2ccc3c(C(=O)NCC4CCNCC4)c[nH]c3c2)cc(OC)c1OC` [Compound 19, N-(piperidin-4-ylmethyl)-6-(3,4,5-trimethoxyphenyl)-1H-indole-3-carboxamide Hydrochloride]: the IC50 in assay [1] is greater than 50 µM.

For `O=C(NCC1CCNCC1)c1c[nH]c2cc(-c3ccc(F)cc3)ccc12` [Compound 20, 6-(4-fluorophenyl)-N-(piperidin-4-ylmethyl)-1H-indole-3-carboxamide Hydrochloride], the IC50 in assay [1] was greater than 50 µM.

Turning to `O=C(NCC1CCNCC1)c1c[nH]c2cc(-c3ccccc3F)ccc12` [Compound 21, 6-(2-fluorophenyl)-N-(piperidin-4-ylmethyl)-1H-indole-3-carboxamide Hydrochloride], the IC50 in assay [1] is greater than 50 µM.

For `NCc1ccc(-c2ccc3c(C(=O)NCC4CCNCC4)c[nH]c3c2)cc1` [Compound 23, 6-(4-(aminomethyl)phenyl)-N-(piperidin-4-ylmethyl)-1H-indole-3-carboxamide Hydrochloride], in assay [1], the half-inhibitory concentration (IC50) was greater than 50 µM.

With `O=C(NCC1CCNCC1)c1cc2cc(-c3cccnc3)ccc2[nH]1` [Compound 33, N-(Piperidin-4-ylmethyl)-5-(pyridin-3-yl)-1H-indole-2-carboxamide Hydrochloride], the half-inhibitory concentration (IC50) in assay [1] was greater than 50 µM.

For the compound `O=C(NCC1CCNCC1)c1cc2ccc(-c3ccc(OC(F)(F)F)cc3)cc2[nH]1` [Compound 51, N-(Piperidin-4-ylmethyl)-6-(4-(trifluoromethoxy)phenyl)-1H-indole-2-carboxamide Hydrochloride], the IC50 in assay [1] was found to be 3.2 µM.

Regarding `O=C(NCC1CCNCC1)c1cc2ccc(-c3ccoc3)cc2[nH]1` [Compound 66, 6-(Furan-3-yl)-N-(piperidin-4-ylmethyl)-1H-indole-2-carboxamide Hydrochloride], the “log reduction of ZIKV replication in U87 cells” value turned out to be 0.5 log in the assay with ZIKV-FLR in U87 cells (at 1 μM) and 2 log in the assay on ZIKV-FLR in U87 cells (at 10 μM). In addition, the “mode of inhibition against ZVpro” value in assay [1] (IC50 vs substrate concentration 0.5 to 10 μM) is “non-competitive”. For the same compound, the “mode of inhibition against DV2pro” value in assay [2] was “non-competitive”.

As for `N#Cc1ccc(-c2ccc3c(C(=O)NC4CCNCC4)coc3c2)cc1` [Compound 69, 6-(4-Cyanophenyl)-N-(piperidin-4-yl)benzofuran-3-carboxamide Hydrochloride], the IC50 in assay [1] is greater than 50 µM.

By IC50 is commonly meant the concentration needed to halve the response being measured. A lower IC50 goes with greater potency in that assay.
